The values below come from patent US8349215B2, “Corrosion inhibitors having increased biological degradability and minimized toxicity” (Clariant Finance (BVI) Limited, priority 2008, dated 2013).

Data set [1] can be described thus: Biodegradability (OECD 306).
The test system of data set [2] is Skeletonema costatum. Put plainly: Toxicity (EC50 Skeletonema costatum). The format is cell-based.

`CCCCCCCCN1CC(C(=O)O)CC1=O.NCCO` (stereo not shown) [Compound from example 1, N-octyl-5-oxopyrrolidine-3-carboxylic acid monoethanolammonium salt] had a Biodegradability in data set [1] of 85%. The “Toxicity EC50” value in data set [2] is above 100 µg/mL.
In the same order, the values of `CCCCCCCC/C=C\CCCCCCCCN1CC(C(=O)O)CC1=O.NCCO` (stereo not shown) [Compound from example 5, N-oleyl-5-oxopyrrolidine-3-carboxylic acid monoethanolammonium salt] are 78% and above 100 µg/mL.
